Here are results for 7 compounds from PubChem BioAssay (NCI).

Test systems include SNB-75 CNS; MDA-MB-231 breast; NCI/ADR-RES ovarian; SK-OV-3 ovarian; HCC-2998 colon; SW-620 colon; NCI-H460 lung; HCT-116 colon; M14 melanoma; HOP-62 NSCLC.
Holding throughout (experiment): growth of human tumour cells (NCI), 48 h

Each structure is given as a SMILES string. “And” between values parts separate entries of the source, which are not always exact repeats. Equal values may be shown once.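 Method: 48-hour compound exposure of cells in 96-well plates, five concentrations, linear interpolation of endpoints. Abbreviation: GI50, concentration required for 50% inhibition of growth. TGI denotes the concentration required for complete inhibition of growth.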

In the case of `CCC(=O)Nc1ccc2c(c1)CN1C(=O)c3ccccc3C1=N2`, the GI50 in the assay on SNB-75 CNS, in the assay with MDA-MB-231 breast, with NCI/ADR-RES ovarian, with SK-OV-3 ovarian, in the assay with HCC-2998 colon and with SW-620 colon was greater than 100 µM each time. The GI50 in the assay on NCI-H460 lung, with HCT-116 colon, in the assay with M14 melanoma and in the assay on HOP-62 NSCLC was greater than 100 µM each time. Further, the TGI in the assay on SNB-75 CNS, in the assay on MDA-MB-231 breast, in the assay on NCI/ADR-RES ovarian, in the assay with SK-OV-3 ovarian, in the assay with HCC-2998 colon and in the assay on SW-620 colon was greater than 100 µM each time. The TGI with NCI-H460 lung, in the assay with HCT-116 colon, in the assay with M14 melanoma and with HOP-62 NSCLC was greater than 100 µM throughout.
`CC1=C([Se]CC(OC(=O)[C@@H](CSSC(C)(C)C)NC(=O)C(C)(C)C)C(=O)NCCCCCC(=O)OCc2ccccc2)C(=O)c2ccccc2C1=O` (some centres undefined): the GI50 with SNB-75 CNS was 1.37 µM; in the assay on MDA-MB-231 breast, 1.92 µM; with NCI/ADR-RES ovarian, 3.4 µM; with SK-OV-3 ovarian, 1.56 µM; in the assay with HCC-2998 colon it was 2.2 µM; in the assay on SW-620 colon, 2.31 µM. Further, the GI50 with NCI-H460 lung was 0.637 µM; in the assay on HCT-116 colon it was 1.53 µM; in the assay on M14 melanoma it was 2.05 µM; in the assay with HOP-62 NSCLC, 1.01 µM. The TGI turned out to be 2.66 µM in the assay with SNB-75 CNS; 4.23 µM in the assay on MDA-MB-231 breast; 11.4 µM in the assay with NCI/ADR-RES ovarian; 2.92 µM with SK-OV-3 ovarian; 4 µM in the assay with HCC-2998 colon; 5.2 µM in the assay on SW-620 colon. In addition, the TGI in the assay with NCI-H460 lung came out at 2.52 µM; in the assay with HCT-116 colon, 3.68 µM; in the assay on M14 melanoma, 4.04 µM; in the assay on HOP-62 NSCLC, 3.03 µM.
In the case of `N#Cc1c(N)nc(N2CCOCC2)c(C#N)c1-c1cccc(O)c1`, the GI50 with SNB-75 CNS is 17.2 µM; with MDA-MB-231 breast, 71.2 µM; in the assay on NCI/ADR-RES ovarian, greater than 100 µM; with SK-OV-3 ovarian, 70.9 µM; in the assay with HCC-2998 colon it was 68.5 µM; in the assay on SW-620 colon, greater than 100 µM. For the same compound, the GI50 with NCI-H460 lung was 93.2 µM; in the assay with HCT-116 colon, greater than 100 µM; with M14 melanoma, greater than 100 µM; with HOP-62 NSCLC, 78.3 µM. Moreover, the TGI with SNB-75 CNS is 70.6 µM; with MDA-MB-231 breast, greater than 100 µM; with NCI/ADR-RES ovarian, greater than 100 µM; with SK-OV-3 ovarian it was greater than 100 µM; with HCC-2998 colon, greater than 100 µM; in the assay with SW-620 colon, greater than 100 µM. Further, the TGI in the assay on NCI-H460 lung, with HCT-116 colon, with M14 melanoma and with HOP-62 NSCLC was greater than 100 µM throughout.
For the compound `COc1ccc(C(=O)c2ccc(OC)cc2OC)cc1`, the GI50 in the assay with SNB-75 CNS is 1.76 µM; with MDA-MB-231 breast, 6.6 µM; with NCI/ADR-RES ovarian it was 1.59 µM; with SK-OV-3 ovarian it was 2.66 µM; in the assay with HCC-2998 colon, 6.54 µM; in the assay on SW-620 colon it was 2.96 µM. For the same compound, the GI50 is 3.74 µM in the assay on NCI-H460 lung, 3.24 µM in the assay on HCT-116 colon, 2.47 µM in the assay on M14 melanoma and 2.6 µM in the assay with HOP-62 NSCLC. In addition, the TGI is 5.57 µM in the assay on SNB-75 CNS; 90.2 µM in the assay on MDA-MB-231 breast; 5.98 µM in the assay on NCI/ADR-RES ovarian; 8.81 µM with SK-OV-3 ovarian; 41.3 µM with HCC-2998 colon; greater than 100 µM in the assay on SW-620 colon. Besides, the TGI in the assay with NCI-H460 lung is 89.5 µM; in the assay on HCT-116 colon, 34.7 µM; in the assay on M14 melanoma, greater than 100 µM; in the assay with HOP-62 NSCLC it was greater than 100 µM.
Regarding `O=S(=O)(NCCNc1cc(-c2cn(-c3ccccc3)nc2-c2cccc(O)c2)ccn1)c1ccc(F)cc1`, the GI50 in the assay on SNB-75 CNS is 2.83 µM; in the assay with MDA-MB-231 breast it was 1.88 µM; in the assay on NCI/ADR-RES ovarian, 2.69 µM; with SK-OV-3 ovarian, 2.85 µM; in the assay with HCC-2998 colon, 1.98 µM; in the assay with SW-620 colon, 3.52 µM. The GI50 in the assay with NCI-H460 lung was 3.12 µM; in the assay with HCT-116 colon, 2.86 µM; with M14 melanoma it was 2.27 µM; in the assay with HOP-62 NSCLC it was 1.98 µM. Besides, the TGI came out at 16.5 µM in the assay with SNB-75 CNS; 4.7 µM in the assay with MDA-MB-231 breast; 12.3 µM in the assay with SK-OV-3 ovarian; 4.19 µM in the assay on HCC-2998 colon; 13.6 µM in the assay with SW-620 colon; 9.12 µM in the assay with NCI-H460 lung. Moreover, the TGI in the assay with HCT-116 colon came to 10.4 µM; in the assay with M14 melanoma, 6.41 µM; with HOP-62 NSCLC, 5.44 µM.
Turning to `Cc1cc2c(cc1C)[n+](=O)c(C(=O)c1cccs1)c(C(F)(F)F)n2[O-]`, the GI50 was 1.02 µM in the assay with SNB-75 CNS; 1.1 µM and 1.67 µM with MDA-MB-231 breast; 6.4 µM and 3.28 µM in the assay with NCI/ADR-RES ovarian; 7.95 µM and 10.3 µM in the assay on SK-OV-3 ovarian; 6.86 µM and 2.08 µM in the assay with HCC-2998 colon; 2.48 µM and 11.5 µM in the assay on SW-620 colon. The GI50 was 1.19 µM and 1.86 µM in the assay with NCI-H460 lung; 5.2 µM in the assay on HCT-116 colon; 14.6 µM and 13.5 µM with M14 melanoma; 14.6 µM and 2.68 µM in the assay on HOP-62 NSCLC. Besides, the TGI in the assay with SNB-75 CNS is 18.7 µM; in the assay on MDA-MB-231 breast, 8.54 µM and 8 µM; with NCI/ADR-RES ovarian it was 18.6 µM and 27.2 µM; in the assay on SK-OV-3 ovarian, 50 µM and 49 µM; in the assay with HCC-2998 colon, 20.9 µM and 5.24 µM; with SW-620 colon, 50 µM and 50.6 µM. For the same compound, the TGI in the assay with NCI-H460 lung was 6.35 µM and 16.9 µM; in the assay on HCT-116 colon it was 26.7 µM; in the assay on M14 melanoma, 50 µM and > 100 µM; with HOP-62 NSCLC it was 50 µM.
For `CCN(CC)CCCC(C)N/C(c1cccc(OC)c1)=c1\c(=O)[nH]n(-c2c3ccccc3nc3ccccc23)c(=O)\c1=C(/NC(C)CCCN(CC)CC)c1cccc(OC)c1` (centres undefined), the GI50 is 1.41 µM in the assay on SNB-75 CNS; 1.25 µM in the assay on MDA-MB-231 breast; 1.79 µM in the assay on NCI/ADR-RES ovarian; 2.23 µM with SK-OV-3 ovarian; 1.44 µM with HCC-2998 colon; 0.528 µM with SW-620 colon. Also, the GI50 with NCI-H460 lung was 0.428 µM; in the assay with HCT-116 colon, 0.491 µM; with M14 melanoma, 2.01 µM; in the assay with HOP-62 NSCLC, 1.47 µM. For the same compound, the TGI with SNB-75 CNS is 2.74 µM; in the assay on MDA-MB-231 breast, 3.26 µM; in the assay with NCI/ADR-RES ovarian, 8.91 µM; with SK-OV-3 ovarian, 7.2 µM; in the assay with HCC-2998 colon, 2.92 µM; with SW-620 colon, 6.82 µM. The TGI came to 2.56 µM with NCI-H460 lung, 3.25 µM in the assay with HCT-116 colon, 4.1 µM with M14 melanoma and 5.03 µM in the assay on HOP-62 NSCLC.
